# Reference: patent publication US11053454B2, “Fragrance compositions comprising essential oils and products comprising same for promoting wellness” (THIS WORKS PRODUCTS LIMITED, priority 2018, dated 2021)
# Like-named read-outs stand apart in the source and are kept apart here.
# Tested on: primary olfactory cortex (piriform cortex)
# Test: fMRI connectivity analysis with piriform cortex as seed
# Format: in vivo, human
# Protocol: The pre-processed data were analyzed with the connectivity toolbox in SPM. The primary olfactory cortex (piriform cortex) was used as a seed and the connectivity from this very first olfactory target area to other areas in the brain was modeled. A statistical threshold of 0.05, FDR corrected, was used.
smiles,measurement,setting,value
"OCCc1ccccc1 [PEA, Phenylethylalcohol]",negative connectivity from the piriform cortex,,negative connectivity to the posterior cingulate cortex
same,negative connectivity from the piriform cortex,listed as control odor,negative connectivity was detected to the left parietal frontal gyrus
same,overall connectivity: intensity,threshold 0.05 FDR corrected,170
same,overall connectivity: nodes,threshold 0.05 FDR corrected,41 nodes
